# Data published in US7700648B2, “Ester compound and its use” (Sumitomo Chemical Company Limited, priority 2004, dated 2010).
# Test system: common mosquitoes (Culex pipiens pallens)
# Assay: Knock-down test on common mosquitoes by oil solution spray in a cubic chamber
# Assay type: in vivo
# Details: 0.7 ml of 0.025% oil solution sprayed in 70 cm cubic chamber; ten female Culex pipiens pallens; counted for 10 minutes
# From the text: A solution of 0.025 part of the present compound (1) dissolved with 10 parts of dichloromethane was mixed with 89.975 parts of deodorized kerosene to give a 0.025% oil solution.
# Ten female common mosquitoes (Culex pipiens pallens) were left in a cubic chamber (70 cm at side). Seven-tenths (0.7) ml of the 0.025% oil solution of the present compound (1) was sprayed with a spray gun at a pressure of 8.8×10^4 Pa from a small window on the side of the chamber. Then, the number of the knocked-down insects was counted at times for 10 minutes. The time (KT50) for knocking down half of the tested insects was calculated from the result.
# For the comparison, 5-benzyl-3-furylmethyl 1R-trans-2,2-dimethyl-3-((E)-2-cyano-3-ethoxy-3-oxo-1-propenyl)cyclopropanecarboxylate (hereinafter, referred to as the comparison compound) was also subjected to the above mentioned test. The test was done twice for one compound.
row,SMILES,KT50 (time for knocking down half of the tested insects) [min]
1,"CCOC(=O)/C(C#N)=C/[C@@H]1[C@@H](C(=O)OCc2coc(Cc3ccccc3)c2)C1(C)C (relative stereo) [The comparison compound, 5-benzyl-3-furylmethyl 1R-trans-2,2-dimethyl-3-((E)-2-cyano-3-ethoxy-3-oxo-1-propenyl)cyclopropanecarboxylate]",6.1
2,"COC(=O)/C(C#N)=C/C1C(C(=O)OCc2coc(Cc3ccccc3)c2)C1(C)C (stereo not drawn) [The present compound (1), 5-benzyl-3-furylmethyl 1R-trans-2,2-dimethyl-3-((E)-2-cyano-3-methoxy-3-oxo-1-propenyl)cyclopropan ecarboxylate]",0.7
